Measurements taken from the NIST ThermoML archive (doi:10.1021/je2008523).
± gives the expanded uncertainty stated by the source.

Assays:
[1] = refractive index (Na D-line) (dimensionless); settings: 303.1 K; 101.33 kPa; Liquid; Standard Abbe refractometry

Work on CN(CCO)CCO [N-methyldiethanolamine] yielded a mass density (298.1 K, 101.33 kPa, Liquid, Vibrating tube method) of 1038.11 ± 0.92 kg/m3, a viscosity (298.15 K, 101.33 kPa, Liquid, Capillary tube (Ostwald / Ubbelohde) method) of 77.09 ± 1.8 mPa·s and a surface tension liquid-gas (303.15 K, Pendant drop shape) of 38.26 ± 0.53 mN/m. The refractive index [1] was 1.46008 ± 0.00051.
